Patent publication US20230348465A1, “IBOGAINE ANALOGS AS THERAPEUTICS FOR NEUROLOGICAL AND PSYCHIATRIC DISORDERS” (The Trustees of Columbia University in the City of New York, priority 2020, published 2023)
Read-outs that look alike come from different tables or passages of the source.

Columns and labels:
[1] = Metabolic stability and noribogaine formation in rat liver microsomes (RLM), LC-MS/MS; conditions: for percent remaining of parent compound: 10 µM, + NADPH; for CLh,int: 45 mg microsomal protein per gm liver; for % Remaining at 60 min (- NADPH): without NADPH; for %Remaining at 60 min (Buffer): buffer control, RLM column; for half-life at 10 µM: male, rat, microsomes, pH 7.4
Procedure: (§1) Metabolism Studies. Metabolic stability of test compounds was evaluated in liver microsomes from rat (RLM) and human (HLM). This was accomplished by incubating test compounds with microsomes and monitoring disappearance of parent compound as well as metabolite formation over time using LC-MS/MS in Multiple Reaction Monitoring mode (MRM).
(§2) Stock solutions of test compounds were prepared in DMSO at a concentration of 10 mM.
(§3) From the above mix, 70 µL was added to individual wells of 96 well reaction plates and preincubated at 37° C. for 5 min. […] Reactions without NADPH and buffer controls (minus NADPH) at 0 min and 60 min were also incubated to rule out non-NADPH metabolism or chemical instability in the incubation buffer. All reactions were terminated using 100 µL of ice-cold acetonitrile containing internal standard (glipizide) at 0, 5, 15, 30 and 60 min.
(§4) Samples were monitored for parent compounds disappearance and formation of metabolite in MRM mode using LC-MS/MS instrument (API-4000 with Waters UPLC).
(§5) The percent remaining of test compounds and positive control in each sample was determined by considering peak area ratio in the 0 minute sample as 100%. The Half-life of compounds in microsomes is calculated by formula: […]
(§6) In vitro intrinsic clearance (CL´int) (units in mL/min/kg) was calculated using the formula: […]
(§7) * Indicates liver weight (gm) which varies species wise. For human, monkey, dog, rat and mouse the liver weight are 20 gm, 32 gm, 32 gm, 40 gm and 90 gm respectively.

[2] = molecular target: T1, rVMAT2 (Rattus norvegicus, UniProt Q01827); test: rVMAT2 screening assay: inhibition of uptake of the fluorescent substrate FFN206 in stably transfected rVMAT2-HEK cells; type: cell-based; conditions: for Ki: read-out: VMAT2 Ki
T1 construct: expressed in transfected cells; host or cells: HEK cells, stably transfected (rVMAT2-HEK)
T1 sequence (Q01827 whole entry): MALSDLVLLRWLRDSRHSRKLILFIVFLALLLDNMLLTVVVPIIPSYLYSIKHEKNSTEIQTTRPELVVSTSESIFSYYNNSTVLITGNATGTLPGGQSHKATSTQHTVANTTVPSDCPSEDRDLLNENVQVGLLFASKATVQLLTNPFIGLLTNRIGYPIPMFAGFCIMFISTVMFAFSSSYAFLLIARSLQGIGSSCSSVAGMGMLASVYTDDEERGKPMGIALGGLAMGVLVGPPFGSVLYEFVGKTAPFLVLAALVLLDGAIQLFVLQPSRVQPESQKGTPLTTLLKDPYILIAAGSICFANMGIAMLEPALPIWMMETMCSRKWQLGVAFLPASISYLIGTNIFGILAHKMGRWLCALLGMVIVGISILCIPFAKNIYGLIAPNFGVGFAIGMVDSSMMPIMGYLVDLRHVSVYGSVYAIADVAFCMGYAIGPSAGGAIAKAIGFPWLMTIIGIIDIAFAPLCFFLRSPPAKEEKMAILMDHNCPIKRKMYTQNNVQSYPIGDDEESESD
Procedure: (§8) Stably transfected hSERT-HEK and rVMAT2-HEK cellular cultures were maintained in Dulbecco’s Minimal Essential Medium (DMEM) with GlutaMAX (Gibco) with the following additions: 10% (v/v) Fetal Bovine Serum (FBS, Atlanta Biologicals), 100 U/mL Penicillin, and 10 µg/mL Streptomycin (Gibco). With regards to the former cell lineage, an additional ingredient, 500 µg/mLGeneticin (G418) (Sigma) was included to preserve the respective transgene.
(§9) For both hSERT and rVMAT2 screening experiments, respective singly transfected cells were seeded at a density of 0.09 × 10^6 cells/well in poly-D-Lysine (Sigma) coated white solid-bottom 96-well plates. Growth was permitted for approximately 44 hours in said aqueous media and at an incubation environment of 37° C. and 5% Carbon Dioxide. At the beginning of the experiment, the cellular growth solution was aspirated, and individual cells were rinsed with 150 µL of 1× Dulbecco’s Phosphate Buffered Saline (PBS; HyClone). 63 µL of Experimental Media (consisting of the following contents: DMEM without phenol red but with 4.5 g/L of D-Glucose (Gibco), 1 % (v/v) FBS (Atlanta Biologicals), 100 U/mL Penicillin, and 10 µg/mLStreptomycin (Gibco)) with 2 × tiered concentrations of inhibitor (or DMSO, the vehicle of these experiments) were added to the respective wells. […] After a required incubation period of 30 minutes for proper fluorescent probe uptake, the contents of each well were aspirated and consequently, rinsed twice with 120 µL of PBS. A final solution of 120 µL of PBS is finally added to all corresponding wells for cell maintenance before undergoing fluorescence uptake reading by a BioTek H1MF plate reader.
(§10) Numerical analysis of the collected experimental data preceded as accordingly. Respective inhibitor values were first subtracted from vehicular values to quantify the respective fluorescence uptake. This metric was then analyzed using the dose-response-inhibitor nonlinear curve fitting model ([inhibitor] vs response (three parameters)) as supplied by GraphPad Prism 6 software. For each inhibitor, the model supplied a respective IC50 ± SEM value (Table 1).

[3] = molecular target: T2, hSERT (Homo sapiens, UniProt P31645); test: hSERT screening assay: inhibition of uptake of the fluorescent substrate APP+ in stably transfected hSERT-HEK cells; type: cell-based; conditions: for IC50: hSERT-HEK cells, APP+ 1.1 µM, mean ± SEM, n ≥ 4, read-out: SERT IC50; for Ki: Cheng-Prusoff from IC50, Km (APP+) = 1.6 µM, read-out: SERT Ki
T2 construct: expressed in transfected cells; host or cells: HEK cells, stably transfected (hSERT-HEK), kept under G418
T2 sequence (P31645 whole entry): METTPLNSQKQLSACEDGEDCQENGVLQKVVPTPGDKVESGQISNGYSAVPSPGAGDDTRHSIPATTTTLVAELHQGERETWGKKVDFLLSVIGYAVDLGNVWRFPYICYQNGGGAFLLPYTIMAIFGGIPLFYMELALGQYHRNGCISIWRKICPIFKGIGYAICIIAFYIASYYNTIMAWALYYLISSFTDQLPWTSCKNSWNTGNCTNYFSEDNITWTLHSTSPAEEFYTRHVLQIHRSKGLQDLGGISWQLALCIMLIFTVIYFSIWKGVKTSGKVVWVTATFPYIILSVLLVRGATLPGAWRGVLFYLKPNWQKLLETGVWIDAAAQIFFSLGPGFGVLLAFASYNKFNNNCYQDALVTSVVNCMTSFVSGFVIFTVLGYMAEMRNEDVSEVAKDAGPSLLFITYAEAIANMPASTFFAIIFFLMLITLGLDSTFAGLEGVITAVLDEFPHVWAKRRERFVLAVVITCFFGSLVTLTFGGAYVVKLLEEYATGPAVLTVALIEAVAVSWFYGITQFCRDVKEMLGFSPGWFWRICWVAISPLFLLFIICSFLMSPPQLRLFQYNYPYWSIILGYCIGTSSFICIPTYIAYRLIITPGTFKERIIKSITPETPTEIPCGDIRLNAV
Procedure: as §8, §9, §10

[4] = Metabolic stability and noribogaine formation in human liver microsomes (HLM), LC-MS/MS; conditions: for percent remaining of parent compound / CLh,int / % Remaining at 60 min (+ NADPH) / % Remaining at 60 min (- NADPH): HLM; for percent remaining of parent compound: 10 µM, + NADPH; for CLh,int: 45 mg microsomal protein per gm liver; for % Remaining at 60 min (+ NADPH): summary line; for % Remaining at 60 min (- NADPH): without NADPH; for %Remaining at 60 min (Buffer): buffer control, HLM column; for half-life at 10 µM: human, microsomes, pH 7.4
Procedure: as §1, §2, §3, §4, §5, §6, §7

[5] = rVMAT2-HEK cells, FFN206 0.75 µM, mean ± SEM, n ≥ 4, read-out: VMAT2 IC50
[6] = ratio of potency to noribogaine

CCOc1ccc2[nH]c3c(c2c1)CCN1CC2CC(CC)C1C3C2 (centres unmarked) [10-Ethoxy-ibogamine]
percent remaining of parent compound ([1]; RLM, 0 min): 100% | CLh,int ([1]; RLM): 26.7 L/h/kg | percent remaining of parent compound ([1]; RLM, 5 min): 77% | percent remaining of parent compound ([1]; RLM, 15 min): 42% | percent remaining of parent compound ([1]; RLM, 30 min): 3% | percent remaining of parent compound ([1]; RLM, 60 min): 0% | % Remaining at 60 min (+ NADPH) ([1]; RLM, summary line): 0% | % Remaining at 60 min (- NADPH) ([1]; RLM): 88% | %Remaining at 60 min (Buffer) [1]: 88% | half-life at 10 µM [1]: 6 min | VMAT2 inhibition, result in words [2]: potent VMAT2 inhibitor | VMAT2 inhibition, result in words ([2]; listed as 10-Ethoxy-ibogaine): nearly an order of magnitude more potent | IC50 [2, 5]: 0.08 ± 0.02 µM | Ki [2]: 0.05 ± 0.01 µM | SERT inhibition, result in words [3]: only a weak inhibitor of SERT | IC50 [3]: 9 ± 1.1 µM | percent remaining of parent compound ([4]; 0 min): 100% | CLh,int [4]: 0.78 L/h/kg | percent remaining of parent compound ([4]; 5 min): 103% | percent remaining of parent compound ([4]; 15 min): 98% | percent remaining of parent compound ([4]; 30 min): 85% | percent remaining of parent compound ([4]; 60 min): 66% | % Remaining at 60 min (+ NADPH) [4]: 66% | % Remaining at 60 min (- NADPH) [4]: 106% | %Remaining at 60 min (Buffer) [4]: 88% | half-life at 10 µM [4]: > 60 min

CCC1CC2CC3c4[nH]c5ccc(C(N)=O)cc5c4CCN(C2)C13 (centres unmarked) [Compound 2, Ibogamine-10-carboxamide]
IC50 [2, 5]: 3 ± 0.57 µM | IC50 [3]: 2.5 ± 0.29 µM

CCC1CC2CC3c4[nH]c5ccc(C#N)cc5c4CCN(C2)C13 (centres unmarked) [Compound 3, Ibogamine-10-carbonitrile]
IC50 [2, 5]: 3.3 ± 0.43 µM | IC50 [3]: 0.026 ± 0.0038 µM

CCCOc1ccc2[nH]c3c(c2c1)CCN1CC2CC(CC)C1C3C2 (centres unmarked) [Compound 4, 10-Propoxy-ibogamine]
IC50 [3]: 3 ± 0.5 µM

CCC1CC2CC3c4[nH]c5ccccc5c4CCN(C2)C13 (centres unmarked) [Compound 5, Ibogamine]
IC50 [2, 5]: 3 ± 0.55 µM | times weaker than noribogaine at VMAT2 [2, 6]: approximately 5.3 | Ki [2]: 1.8 ± 0.34 µM | Ki [3]: 0.2 ± 0.02 µM | IC50 [3]: 0.33 ± 0.04 µM

CCC1CC2CC3c4c(c5ccccc5n4C)CCN(C2)C13 (centres unmarked) [Compound 6, N-methyl-ibogamine]
IC50 [2, 5]: 1.5 ± 0.16 µM | IC50 [3]: 0.08 ± 0.009 µM

CCC1CC2CC3c4c(c5cc(OC)ccc5n4C)CCN(C2)C13 (centres unmarked) [Compound 7, N-methyl-ibogaine]
IC50 [2, 5]: 0.74 ± 0.11 µM | IC50 [3]: 1.5 ± 0.13 µM

CCC1CC2CC3c4c(c5cc(O)ccc5n4C)CCN(C2)C13 (centres unmarked) [Compound 8, N-methyl-noribogaine]
IC50 [2, 5]: 0.17 ± 0.03 µM | times more potent than noribogaine at VMAT2 [2, 6]: approximately 3.4 | Ki [2]: 0.1 ± 0.02 µM | Ki [3]: 0.035 ± 0.0067 µM | IC50 [3]: 0.059 ± 0.011 µM | times more potent than noribogaine at SERT [3, 6]: approximately 4.7

CCC1CC2CC3c4c(c5cc(C#N)ccc5n4C)CCN(C2)C13 (centres unmarked) [Compound 10, N-methyl-ibogamine-10-carbonitrile]
IC50 [2, 5]: 0.44 ± 0.05 µM | IC50 [3]: 0.0051 ± 0.00083 µM

CCc1ccc2c(c1)c1c(n2C)C2CC3CC(CC)C2N(CC1)C3 (centres unmarked) [Compound 11, N-methyl-10-ethyl-ibogamine]
IC50 [2, 5]: 0.75 ± 0.07 µM | IC50 [3]: 0.91 ± 0.12 µM

CCC1CC2CC3c4c(c5cc(O)ccc5n4CC)CCN(C2)C13 (centres unmarked) [Compound 13, N-ethyl-noribogaine]
IC50 [2, 5]: 0.07 ± 0.01 µM | IC50 [3]: 1.9 ± 0.2 µM

CCOc1ccc2c(c1)c1c(n2C)C2CC3CC(CC)C2N(CC1)C3 (centres unmarked) [Compound 14, N-methyl-10-ethoxy-ibogamine]
IC50 [3]: 2.8 ± 0.38 µM

CCC1CC2CC3c4[nH]c5ccc(OC)c(Br)c5c4CCN(C2)C13 (centres unmarked) [Compound 17, 9-Bromo-ibogaine]
IC50 [2, 5]: 4.9 ± 0.87 µM | times weaker than noribogaine at VMAT2 [2, 6]: ~8.6 | Ki [2]: 3 ± 0.53 µM | Ki [3]: 0.4 ± 0.09 µM | IC50 [3]: 0.67 ± 0.16 µM | times less potent than noribogaine at SERT [3, 6]: approximately 2.4

CCC1CC2CC3c4[nH]c5cc(Br)c(OC)cc5c4CCN(C2)C13 (centres unmarked) [Compound 18, 11-Bromo-ibogaine]
IC50 [2, 5]: 1 ± 0.15 µM | IC50 [3]: 0.2 ± 0.03 µM

CCC1CC2CC3c4[nH]c5ccc(OC)c(Cl)c5c4CCN(C2)C13 (centres unmarked) [Compound 19, 9-Chloro-ibogaine]
IC50 [2, 5]: 18 ± 5.9 µM | IC50 [3]: 1.2 ± 0.12 µM

CCC1CC2CC3c4[nH]c5ccc(OC)cc5c4CCN(C2)C13 (centres unmarked) [Ibogaine]
percent remaining of parent compound ([1]; RLM, 0 min): 100% | CLh,int ([1]; RLM): 18.4 L/h/kg | percent remaining of parent compound ([1]; RLM, 5 min): 86% | percent remaining of parent compound ([1]; RLM, 15 min): 56% | percent remaining of parent compound ([1]; RLM, 30 min): 23% | percent remaining of parent compound ([1]; RLM, 60 min): 1% | % Remaining at 60 min (- NADPH) ([1]; RLM): 104% | %Remaining at 60 min (Buffer) [1]: 103% | half-life at 10 µM [1]: 8 min | IC50 [2]: ~4 µM | percent remaining of parent compound ([4]; 0 min): 100% | CLh,int [4]: 0.42 L/h/kg | percent remaining of parent compound ([4]; 5 min): 104% | percent remaining of parent compound ([4]; 15 min): 98% | percent remaining of parent compound ([4]; 30 min): 94% | percent remaining of parent compound ([4]; 60 min): 81% | % Remaining at 60 min (+ NADPH) [4]: 81% | % Remaining at 60 min (- NADPH) [4]: 98% | %Remaining at 60 min (Buffer) [4]: 103% | half-life at 10 µM [4]: > 60 min

CC[C@H]1C[C@H]2C[C@H]3c4[nH]c5ccc(O)cc5c4CCN(C2)[C@@H]13 [Noribogaine, reference compound]
Ki ([2]; Cheng-Prusoff from IC50, Km (FFN206) = […]): 0.35 ± 0.04 µM | IC50 [2, 5]: 0.57 ± 0.08 µM | SERT inhibition, result in words [3]: potent SERT inhibitor
